The numbers were not newly measured in article PMC9516332 (Frontiers in Oncology, 2022), which cites them from elsewhere.

Where two headings read alike, the source gives them in different places.

Common to all, as to settings: cited from earlier work
Data set [1] concerns the target panel of 255 wild-type kinases (Homo sapiens, UniProt Q04759).
Data set [2] addresses panel of 255 wild-type kinases (Homo sapiens, UniProt P50613).
In data set [3] the target is T1, panel of 255 wild-type kinases (Homo sapiens, UniProt Q12866).
T1 sequence (Q12866 21-999): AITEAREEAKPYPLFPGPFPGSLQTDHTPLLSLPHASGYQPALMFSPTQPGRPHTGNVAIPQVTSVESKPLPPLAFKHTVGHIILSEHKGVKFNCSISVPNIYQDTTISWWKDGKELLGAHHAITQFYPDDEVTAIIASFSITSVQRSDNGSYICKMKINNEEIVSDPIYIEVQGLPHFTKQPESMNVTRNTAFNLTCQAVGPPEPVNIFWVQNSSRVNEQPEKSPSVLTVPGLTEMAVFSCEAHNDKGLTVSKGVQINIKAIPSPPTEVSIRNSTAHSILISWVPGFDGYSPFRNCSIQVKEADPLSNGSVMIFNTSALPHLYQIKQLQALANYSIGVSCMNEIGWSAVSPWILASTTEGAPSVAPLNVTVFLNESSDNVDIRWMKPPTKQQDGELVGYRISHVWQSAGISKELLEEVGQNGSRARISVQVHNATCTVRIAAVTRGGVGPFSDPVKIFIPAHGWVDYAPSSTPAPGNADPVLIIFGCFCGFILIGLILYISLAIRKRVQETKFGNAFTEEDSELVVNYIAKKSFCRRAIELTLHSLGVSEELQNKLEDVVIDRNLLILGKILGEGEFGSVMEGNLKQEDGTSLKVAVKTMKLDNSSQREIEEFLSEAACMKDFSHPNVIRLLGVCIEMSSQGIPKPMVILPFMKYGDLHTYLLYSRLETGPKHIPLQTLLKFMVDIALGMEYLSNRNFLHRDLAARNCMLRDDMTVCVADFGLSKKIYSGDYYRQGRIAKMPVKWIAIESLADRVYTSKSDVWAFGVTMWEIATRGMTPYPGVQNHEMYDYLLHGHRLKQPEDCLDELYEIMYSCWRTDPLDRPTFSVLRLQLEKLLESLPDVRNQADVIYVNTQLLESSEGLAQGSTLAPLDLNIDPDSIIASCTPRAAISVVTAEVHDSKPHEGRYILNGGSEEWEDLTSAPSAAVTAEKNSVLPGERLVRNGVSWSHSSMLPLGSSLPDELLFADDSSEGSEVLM

The target of data set [4] is panel of 255 wild-type kinases (Homo sapiens, UniProt Q9UPE1).
Data set [5] deals with T2, panel of 255 wild-type kinases (Homo sapiens, UniProt O14757).
T2 sequence (O14757 1-476): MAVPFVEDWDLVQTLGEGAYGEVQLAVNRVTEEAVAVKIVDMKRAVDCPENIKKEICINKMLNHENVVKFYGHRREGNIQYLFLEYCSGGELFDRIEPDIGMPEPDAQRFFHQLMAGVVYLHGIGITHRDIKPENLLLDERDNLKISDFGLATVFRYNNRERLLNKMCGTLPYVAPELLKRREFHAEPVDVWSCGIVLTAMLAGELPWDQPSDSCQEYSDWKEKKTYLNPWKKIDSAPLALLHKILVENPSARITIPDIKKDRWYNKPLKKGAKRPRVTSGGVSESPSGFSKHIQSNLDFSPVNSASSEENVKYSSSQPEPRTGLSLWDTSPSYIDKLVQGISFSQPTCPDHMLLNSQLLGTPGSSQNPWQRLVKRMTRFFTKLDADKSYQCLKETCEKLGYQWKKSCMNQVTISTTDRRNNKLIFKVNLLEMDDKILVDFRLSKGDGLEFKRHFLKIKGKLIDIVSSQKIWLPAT

The target of data set [6] is T3, panel of 255 wild-type kinases (Homo sapiens, UniProt O00418).
T3 sequence (O00418 1-725): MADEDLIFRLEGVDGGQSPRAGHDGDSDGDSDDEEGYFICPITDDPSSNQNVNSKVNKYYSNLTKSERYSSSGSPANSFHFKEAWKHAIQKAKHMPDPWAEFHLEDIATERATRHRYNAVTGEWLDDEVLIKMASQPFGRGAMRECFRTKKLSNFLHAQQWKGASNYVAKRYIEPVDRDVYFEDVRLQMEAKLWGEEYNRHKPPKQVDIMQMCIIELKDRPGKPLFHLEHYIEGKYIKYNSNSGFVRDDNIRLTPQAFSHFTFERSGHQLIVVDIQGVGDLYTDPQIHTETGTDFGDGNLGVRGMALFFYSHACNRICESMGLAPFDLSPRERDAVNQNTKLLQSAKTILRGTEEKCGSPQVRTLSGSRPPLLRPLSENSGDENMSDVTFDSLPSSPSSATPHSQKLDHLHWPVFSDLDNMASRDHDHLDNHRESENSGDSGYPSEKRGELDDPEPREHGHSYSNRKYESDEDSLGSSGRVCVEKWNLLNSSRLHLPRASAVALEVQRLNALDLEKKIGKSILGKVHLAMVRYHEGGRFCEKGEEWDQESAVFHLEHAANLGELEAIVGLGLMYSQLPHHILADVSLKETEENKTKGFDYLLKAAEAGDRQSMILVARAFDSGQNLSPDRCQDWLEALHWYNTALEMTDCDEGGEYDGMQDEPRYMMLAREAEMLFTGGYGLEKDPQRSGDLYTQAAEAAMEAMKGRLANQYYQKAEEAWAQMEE

The target of data set [7] is panel of 255 wild-type kinases (Homo sapiens, UniProt P22694).
For data set [8], the target named is panel of 255 wild-type kinases (Homo sapiens, UniProt P31751).
Setting [9] is: kinase PKCθ, 1 µmol/L single concentration, ref DOI: 10.1158/1535-7163.MCT-18-0877.
[10] abbreviates: CDK7/CycH/MAT1 kinase assay, 1 µmol/L single concentration, ref DOI: 10.1158/1535-7163.MCT-18-0877.
Setting [11] is: MER, 1 µmol/L single concentration, ref DOI: 10.1158/1535-7163.MCT-18-0877.
Setting [12] is: MSSK1, 1 µmol/L single concentration, ref DOI: 10.1158/1535-7163.MCT-18-0877.
Where [13] appears, read: CHK1 kinase assay, 1 µmol/L single concentration, ref DOI: 10.1158/1535-7163.MCT-18-0877.
[14] abbreviates: kinase EEF2K, 1 µmol/L single concentration, ref DOI: 10.1158/1535-7163.MCT-18-0877.
Setting [15] is: kinase PKACβ, 1 µmol/L single concentration, ref DOI: 10.1158/1535-7163.MCT-18-0877.
Setting [16] is: AKT2 kinase assay, 1 µmol/L single concentration, ref DOI: 10.1158/1535-7163.MCT-18-0877.

On to `CC#CC(=O)N1CCC[C@H]1c1nc(-c2ccc(C(=O)Nc3ccccn3)cc2)c2c(N)nccn12` [acalabrutinib], for which, in data set [1] (setting [9]), the “%-inhibition at 1 µmol/L, PKCθ” value is listed as -8%. In addition, the “%-inhibition CDK7/CycH/MAT1” value in data set [2] (setting [10]) is 5%. Also, the “%-inhibition, MER” value in data set [3] (setting [11]) was -3.37%. Further, the “%-inhibition, MSSK1” value in data set [4] (setting [12]) was -5%. The “%-inhibition CHK1” value in data set [5] (setting [13]) is listed as -7%. Moreover, the “%-inhibition at 1 µmol/L, EEF2K” value in data set [6] (setting [14]) is -12%. Moreover, the “%-inhibition at 1 µmol/L, PKACβ” value in data set [7] (setting [15]) is reported as -13%. In addition, the “%-inhibition AKT2” value in data set [8] (setting [16]) is -2.69%.
Regarding `CCc1cc2c(cc1N1CCC(N3CCOCC3)CC1)C(C)(C)c1[nH]c3cc(C#N)ccc3c1C2=O` [alectinib], the “%-inhibition at 1 µmol/L, PKCθ” value in data set [1] (setting [9]) is reported as -2%. In addition, the “%-inhibition CDK7/CycH/MAT1” value in data set [2] (setting [10]) is given as -12%. In addition, the “%-inhibition, MER” value in data set [3] (setting [11]) was 56%. Moreover, the “%-inhibition, MSSK1” value in data set [4] (setting [12]) is recorded as 97%. Besides, the “%-inhibition CHK1” value in data set [5] (setting [13]) is 0.288%. For the same compound, the “%-inhibition at 1 µmol/L, EEF2K” value in data set [6] (setting [14]) is reported as -0.237%. Besides, the “%-inhibition at 1 µmol/L, PKACβ” value in data set [7] (setting [15]) is on record as 2%. The “%-inhibition AKT2” value in data set [8] (setting [16]) is reported as 0.306%.
Take `COc1cc(N2CCC(N3CCN(C)CC3)CC2)ccc1Nc1ncc(Cl)c(Nc2ccccc2P(C)(C)=O)n1` [brigatinib]: the “%-inhibition at 1 µmol/L, PKCθ” value in data set [1] was 29%. The “%-inhibition CDK7/CycH/MAT1” value in data set [2] is 55%. For the same compound, the “%-inhibition, MER” value in data set [3] is 89%. For the same compound, the “%-inhibition, MSSK1” value in data set [4] was 5.3%. In data set [5], the “%-inhibition CHK1” value is on record as 96%. Also, the “%-inhibition at 1 µmol/L, EEF2K” value in data set [6] was 2.53%. Moreover, the “%-inhibition at 1 µmol/L, PKACβ” value in data set [7] is 9%. The “%-inhibition AKT2” value in data set [8] is recorded as -1%.
Take `Cc1cc(Nc2ncc(Cl)c(Nc3ccccc3S(=O)(=O)C(C)C)n2)c(OC(C)C)cc1C1CCNCC1` [ceritinib]: the “%-inhibition at 1 µmol/L, PKCθ” value in data set [1] (setting [9]) is -0.708%. Besides, the “%-inhibition CDK7/CycH/MAT1” value in data set [2] (setting [10]) is reported as 45%. Further, the “%-inhibition, MER” value in data set [3] (setting [11]) is reported as 51%. Besides, the “%-inhibition, MSSK1” value in data set [4] (setting [12]) was 36%. The “%-inhibition CHK1” value in data set [5] (setting [13]) is reported as 1.32%. In addition, the “%-inhibition at 1 µmol/L, EEF2K” value in data set [6] (setting [14]) is recorded as 11%. The “%-inhibition at 1 µmol/L, PKACβ” value in data set [7] (setting [15]) was -11%. Besides, the “%-inhibition AKT2” value in data set [8] (setting [16]) is listed as -4.7%.
Consider `O=C(c1ccc(F)c(F)c1Nc1ccc(I)cc1F)N1CC(O)([C@@H]2CCCCN2)C1` [cobimetinib], for which, in data set [1] (setting [9]), the “%-inhibition at 1 µmol/L, PKCθ” value is reported as -4.34%. In data set [2] (setting [10]), the “%-inhibition CDK7/CycH/MAT1” value was 6%. In addition, the “%-inhibition, MER” value in data set [3] (setting [11]) is listed as 1.18%. The “%-inhibition, MSSK1” value in data set [4] (setting [12]) is on record as 1.46%. In data set [5] (setting [13]), the “%-inhibition CHK1” value is given as 9%. In addition, the “%-inhibition at 1 µmol/L, EEF2K” value in data set [6] (setting [14]) was -0.685%. Moreover, the “%-inhibition at 1 µmol/L, PKACβ” value in data set [7] (setting [15]) is recorded as -6.51%. Further, the “%-inhibition AKT2” value in data set [8] (setting [16]) was -2.75%.
As to `C[C@@H](Oc1cc(-c2cnn(C3CCNCC3)c2)cnc1N)c1c(Cl)ccc(F)c1Cl` [crizotinib], in data set [1] (kinase PKCθ, 1 µmol/L single concentration, ref DOI: 10.1371/journal.pone.0092146), the “%-inhibition at 1 µmol/L, PKCθ” value is given as -3%. Further, the “%-inhibition CDK7/CycH/MAT1” value in data set [2] (CDK7/CycH/MAT1 kinase assay, 1 µmol/L single concentration, ref DOI: 10.1371/journal.pone.0092146) was 58%. In data set [5] (CHK1 kinase assay, 1 µmol/L single concentration, ref DOI: 10.1371/journal.pone.0092146), the “%-inhibition CHK1” value is 10%. For the same compound, the “%-inhibition at 1 µmol/L, EEF2K” value in data set [6] (kinase EEF2K, 1 µmol/L single concentration, ref DOI: 10.1371/journal.pone.0092146) was -4.6%. Further, the “%-inhibition at 1 µmol/L, PKACβ” value in data set [7] (kinase PKACβ, 1 µmol/L single concentration, ref DOI: 10.1371/journal.pone.0092146) is -2.3%. The “%-inhibition AKT2” value in data set [8] (AKT2 kinase assay, 1 µmol/L single concentration, ref DOI: 10.1371/journal.pone.0092146) is reported as -2.67%.
As for `CC(C)(C)c1nc(-c2cccc(NS(=O)(=O)c3c(F)cccc3F)c2F)c(-c2ccnc(N)n2)s1` [dabrafenib], the “%-inhibition, MER” value in data set [3] (MER, 1 µmol/L single concentration, ref DOI: 10.1371/journal.pone.0092146) is recorded as -0.876%. In addition, in data set [4] (MSSK1, 1 µmol/L single concentration, ref DOI: 10.1371/journal.pone.0092146), the “%-inhibition, MSSK1” value is given as 2.55%.
`C=CC(=O)N1CCC[C@@H](n2nc(-c3ccc(Oc4ccccc4)cc3)c3c(N)ncnc32)C1` [ibrutinib]: the “%-inhibition at 1 µmol/L, PKCθ” value in data set [1] (setting [9]) is -1.13%. Moreover, the “%-inhibition CDK7/CycH/MAT1” value in data set [2] (setting [10]) is given as 5%. For the same compound, the “%-inhibition, MER” value in data set [3] (setting [11]) was 0.565%. The “%-inhibition, MSSK1” value in data set [4] (setting [12]) is given as 1.54%. The “%-inhibition CHK1” value in data set [5] (setting [13]) is on record as 10%. Moreover, in data set [6] (setting [14]), the “%-inhibition at 1 µmol/L, EEF2K” value is given as 1.15%. Moreover, the “%-inhibition at 1 µmol/L, PKACβ” value in data set [7] (setting [15]) is -9%. For the same compound, the “%-inhibition AKT2” value in data set [8] (setting [16]) is on record as -3%.
Consider `CO[C@@H]1[C@H](N(C)C(=O)c2ccccc2)C[C@H]2O[C@]1(C)n1c3ccccc3c3c4c(c5c6ccccc6n2c5c31)C(=O)NC4` [midostaurin], for which, in data set [2] (setting [10]), the “%-inhibition CDK7/CycH/MAT1” value was 10%. The “%-inhibition, MER” value in data set [3] (setting [11]) is given as 85%. Moreover, the “%-inhibition, MSSK1” value in data set [4] (setting [12]) is -9%. Further, the “%-inhibition CHK1” value in data set [5] (setting [13]) was 68%. Further, the “%-inhibition at 1 µmol/L, EEF2K” value in data set [6] (setting [14]) is -9%. Further, the “%-inhibition at 1 µmol/L, PKACβ” value in data set [7] (setting [15]) is recorded as 91%.
